How the values were obtained:
B16-melanoma cells = test: B16-melanoma growth experiments in mice (tumor volume); assay type: in vivo; conditions: C57BL/6 mice challenged with B16-melanoma, Verteporfin 2 mg/mouse i.p. every two days, anti-PD-1 (G4) 100 μg/mouse i.p. twice a week, GVAX 1×10^6 irradiated cells s.c., FIG. 4
Procedure: C57BL/6 mice were challenged with B16-melanoma cells and tumor progression was monitored as in FIG. 3. Cohorts of mice were injected treated with either VP, GVAX, anti-PD1 antibody, VP and anti-PD-1, or VP and GVAX beginning one day post-tumor injection. Control mice were left untreated (n=5/group). Shown are the mean tumor volumes for the groups +/−SD.
B16-melanoma cells were cultured in vitro in DMEM plus 10% heat inactivated Fetal Bovine Serum and were detached by trypsinization and washed prior to s.c. injection into the footpads of C57BL/6 mice (NCI). 1-5×10^4 B16 melanoma cells were injected each mouse in the footpad. In some cases, 10^5 B16 cells were injected. Once tumors were palpable (7-10 days), […] of 1×10^6 lethally irradiated (150Gy) B16 GM-vaccine cells were injected subcutaneously into the contralateral limb. For all these experiments, 5-10 mice were used per group. A hybridoma cell line expressing a blocking anti-PD-1 antibody (clone G4) was obtained from Dr. Charles Drake (JHH). […] Tumor volume was determined by digital caliper measurements throughout the experiment. The relative tumor volume was calculated by the formula: Length (mm)×Width (mm)×Height (mm)×0.5326×0.01. […] Cytokines and Foxp3 were measured by intracellular flow cytometry.

[1] = statement with reference [17]; may limit bioavailability; cited from earlier work

Q: For Verteporfin, which “tumor growth / tumor size (tumor volume)” value (B16-melanoma cells) is on record?
A: modest reduction in tumor size

Q: And the “tumor growth / tumor size (tumor volume)” value (B16-melanoma cells; listed as VP)?
A: did not alter the course of tumor growth

Q: What about the solubility [1] of the same substance?
A: prone to solubility issues
